Source: article PMC10410440, “Preclinical PK investigation of a novel IDO1/TDO dual inhibitor—SHR9146 in mouse plasma and tissues by LC-MS/MS” (Frontiers in Oncology, 2023)
Several values for one entry are separate records, joined by “and”; a condition that tells them apart may be missing. Identical values can stand only once. Like-named read-outs stand apart in the source and are kept apart here.

Test: Tissue distribution of SHR9146 in mice after oral gavage of 40 mg/kg
Format: in vivo, ICR mice
Conditions: 40 mg/kg, 40 mg/kg oral gavage; for concentration at 1 h / concentration at 3 h / concentration at 6 h / concentration at 24 h: female, ICR, mouse, po
Method: ICR mice with body weight 16–26 g were supplied by Shanghai Lingchang Biotechnology Co., Ltd. (animal breeding license number SCXK (Shanghai) 2013-0018) and housed at Shanghai Institute of Materia Medica, Chinese Academy of Sciences [animal use license number SYXK (Shanghai) 2015-0027]. The mice used in this study were fasted overnight for 12 h but had free access to water. Food was supplied 4 h post-dose. All experiments in this study were conducted in accordance with the Guidelines for the Care and Use of Laboratory Animals of Shanghai Institute of Materia Medica, Chinese Academy of Sciences.
Another set of 30 mice were randomly assigned into five groups with equal numbers, males and females, for tissue distribution study with oral gavage at a single dose of 40 mg/kg at predetermined different time points: pre-dose and post dose at 1, 3, 6, and 24 h, respectively. The whole brain, heart, liver, spleen, lung, kidney, bladder, pancreas, testis, ovary, uterus, stomach, small intestine, adrenal gland, skin, skeletal muscle, thyroid gland, and abdominal fat tissues as well as the whole blood and plasma samples were harvested. Tissue samples were washed with 0.9% sodium chloride solution to remove the residual blood or contents, blotted on a filter paper, and stored at −70°C prior to the analysis.
Protein precipitation was selected for the pretreatment of both the plasma and the tissue homogenate prepared after thawing at room temperature, cut into pieces, and homogenized with a quintuple methanol–water mixture (1:1, v/v) for each tissue sample.
Briefly as follows, an aliquot of 25-μL plasma or tissue homogenate was spiked with 100 μL of internal standard solution (1 μg/mL for plasma, 0.2 μg/mL for tissue homogenate) and 300 μL of methanol added and vortex mixed for 60 s. The mixture was then centrifuged at 14,000 rpm at 4°C for 5.0 min, and the supernatant was diluted with methanol–water (4:1, v/v) in a ratio of 1:9 for the plasma or 1:1 for the tissue homogenate, and 5 μL of the resulting solution was injected for the LC-MS/MS analysis.
After oral administration of 40 mg/kg SHR9146, samples in different tissues at predetermined time points (pre-drug administration, post-drug administration at 1, 3, 6, and 24 h) were collected and prepared for the analysis. The drug concentrations of SHR9146 (μg/g or μg/mL) were determined for each mouse, and the mean and standard deviation were further obtained (Table S7).

[1] = kidney, Mean (n=3), read-out: SHR9146 concentration in Kidney
[2] = liver, Mean (n=3), read-out: SHR9146 concentration in Liver
[3] = lung, Mean (n=3), read-out: SHR9146 concentration in Lung
[4] = ovary, Mean (n=3), read-out: SHR9146 concentration in Ovary
[5] = pancreas, Mean (n=3), read-out: SHR9146 concentration in Pancreas
[6] = plasma, Mean (n=3), read-out: SHR9146 concentration in Plasma
[7] = skeletal muscle, Mean (n=3), read-out: SHR9146 concentration in Skeletal muscle
[8] = skin, Mean (n=3), read-out: SHR9146 concentration in Skin
[9] = small intestine, Mean (n=3), read-out: SHR9146 concentration in Small intestine
[10] = spleen, Mean (n=3), read-out: SHR9146 concentration in Spleen
[11] = stomach, Mean (n=3), read-out: SHR9146 concentration in Stomach
[12] = stomach, individual mice, read-out: SHR9146 concentration in Stomach
[13] = thyroid gland, Mean (n=3), read-out: SHR9146 concentration in thyroid gland
[14] = uterus, Mean (n=3), read-out: SHR9146 concentration in Uterus
[15] = whole blood, Mean (n=3), read-out: SHR9146 concentration in Whole blood

## OCCn1cc(-c2ccc(N3CCC([C@H]4c5c(F)cccc5-c5cncn54)CC3)cc2)cn1 [SHR9146]
kidney, 1 h, individual mice, read-out: SHR9146 concentration in Kidney
  concentration at 1 h: 13100 ng/g
[1]
  concentration at 3 h: 12700 ng/g
  concentration at 6 h: 1430 ng/g
liver, 1 h, Mean (n=3), read-out: SHR9146 concentration in Liver
  concentration at 1 h: 24300 ng/g
liver, 1 h, individual mice, read-out: SHR9146 concentration in Liver
  concentration at 1 h: 22800 ng/g
[2]
  concentration at 3 h: 19800 ng/g
  concentration at 6 h: 1950 ng/g
  concentration at 24 h: 37 ng/g
liver, individual mice, read-out: SHR9146 concentration in Liver
  concentration at 24 h: 54 ng/g
lung, 1 h, Mean (n=3), read-out: SHR9146 concentration in Lung
  concentration at 1 h: 16300 ng/g
lung, 1 h, individual mice, read-out: SHR9146 concentration in Lung
  concentration at 1 h: 13600 ng/g
[3]
  concentration at 3 h: 25800 ng/g
  concentration at 6 h: 1380 ng/g
  concentration at 24 h: 165 ng/g
lung, individual mice, read-out: SHR9146 concentration in Lung
  concentration at 24 h: 154 ng/g
ovary, 1 h, Mean (n=3), read-out: SHR9146 concentration in Ovary
  concentration at 1 h: 18300 ng/g
ovary, 1 h, individual mice, read-out: SHR9146 concentration in Ovary
  concentration at 1 h: 17000 ng/g
[4]
  concentration at 3 h: 12700 ng/g
  concentration at 6 h: 704 ng/g
pancreas, 1 h, Mean (n=3), read-out: SHR9146 concentration in Pancreas
  concentration at 1 h: 18000 ng/g
pancreas, 1 h, individual mice, read-out: SHR9146 concentration in Pancreas
  concentration at 1 h: 15900 ng/g
[5]
  concentration at 3 h: 12500 ng/g
  concentration at 6 h: 638 ng/g
plasma, 1 h, Mean (n=3), read-out: SHR9146 concentration in Plasma
  concentration at 1 h: 13100 ng/mL
plasma, 1 h, individual mice, read-out: SHR9146 concentration in Plasma
  concentration at 1 h: 11800 ng/mL
[6]
  concentration at 3 h: 9070 ng/mL
  concentration at 6 h: 471 ng/mL
Skeletal muscle, 1 h, Mean (n=3), read-out: SHR9146 concentration in Skeletal muscle
  concentration at 1 h: 7800 ng/g
Skeletal muscle, 1 h, individual mice, read-out: SHR9146 concentration in Skeletal muscle
  concentration at 1 h: 6440 ng/g
[7]
  concentration at 3 h: 5910 ng/g
  concentration at 6 h: 294 ng/g
skin, 1 h, Mean (n=3), read-out: SHR9146 concentration in Skin
  concentration at 1 h: 11100 ng/g
skin, 1 h, individual mice, read-out: SHR9146 concentration in Skin
  concentration at 1 h: 9600 ng/g
[8]
  concentration at 3 h: 7700 ng/g
  concentration at 6 h: 498 ng/g
Small intestine, 1 h, Mean (n=3), read-out: SHR9146 concentration in Small intestine
  concentration at 1 h: 21600 ng/g
Small intestine, 1 h, individual mice, read-out: SHR9146 concentration in Small intestine
  concentration at 1 h: 19000 ng/g
[9]
  concentration at 3 h: 16400 ng/g
  concentration at 6 h: 832 ng/g
Small intestine, individual mice, read-out: SHR9146 concentration in Small intestine
  concentration at 3 h: 14600 ng/g
spleen, 1 h, Mean (n=3), read-out: SHR9146 concentration in Spleen
  concentration at 1 h: 6700 ng/g
spleen, 1 h, individual mice, read-out: SHR9146 concentration in Spleen
  concentration at 1 h: 6190 ng/g
[10]
  concentration at 3 h: 4740 ng/g
  concentration at 6 h: 241 ng/g
stomach, 1 h, Mean (n=3), read-out: SHR9146 concentration in Stomach
  concentration at 1 h: 27800 ng/g
stomach, 1 h, individual mice, read-out: SHR9146 concentration in Stomach
  concentration at 1 h: 27400 ng/g
[11]
  concentration at 3 h: 27200 ng/g
  concentration at 6 h: 3870 ng/g
  concentration at 24 h: 848 ng/g
[12]
  concentration at 3 h: 29000 ng/g
  concentration at 24 h: 782 ng/g
Thyroid gland, 1 h, Mean (n=3), read-out: SHR9146 concentration in thyroid gland
  concentration at 1 h: 9550 ng/g
Thyroid gland, 1 h, individual mice, read-out: SHR9146 concentration in thyroid gland
  concentration at 1 h: 8340 ng/g
[13]
  concentration at 3 h: 6940 ng/g
  concentration at 6 h: 378 ng/g
uterus, 1 h, Mean (n=3), read-out: SHR9146 concentration in Uterus
  concentration at 1 h: 10700 ng/g
uterus, 1 h, individual mice, read-out: SHR9146 concentration in Uterus
  concentration at 1 h: 9740 ng/g
[14]
  concentration at 3 h: 6040 ng/g
  concentration at 6 h: 363 ng/g
Whole blood, 1 h, Mean (n=3), read-out: SHR9146 concentration in Whole blood
  concentration at 1 h: 8660 ng/mL
Whole blood, 1 h, individual mice, read-out: SHR9146 concentration in Whole blood
  concentration at 1 h: 7360 ng/mL
[15]
  concentration at 3 h: 6190 ng/mL
  concentration at 6 h: 298 ng/mL
male, 1 h, individual mice
  SHR9146 concentration in Bladder: 13.766 µg/g and 11.095 µg/g
  SHR9146 concentration in Kidney: 15.501 µg/g and 7.908 µg/g
  SHR9146 concentration in Liver: 23.893 µg/g and 14.099 µg/g
  SHR9146 concentration in Lung: 16.090 µg/g and 8.210 µg/g
